From PMC10046377, “Inhibitors of the Oncogenic PA2G4-MYCN Protein-Protein Interface” (Cancers, 2023)

Tests used:
Type in all cases: cell-based, human
Kelly cells = assay: Colony formation assay, Kelly; conditions: increasing concentrations, 2 weeks
Procedure: (§1) A total of 250 SK-N-BE(2)-C and 500 Kelly cells were seeded in 6-well plates and treated with #5333 and #5338 24 h after seeding. Once colonies had formed (14 days for Kelly, 10 days for SK-N-BE(2)-C), cells were fixed and stained with 0.5% crystal violet in 50% methanol and washed twice to remove the unincorporated stain. The photos of colonies were taken by ChemiDoc MP Imaging System (Bio-Rad, South Granville, NSW, Australia). Stained colonies were counted, and colony size was measured using Image J software.
(§2) We treated human neuroblastoma tumour cell lines with high MYCN and PA2G4 expression (Kelly and SK-N-BE(2)-C), using increasing concentrations of #5333 or #5338, and measured the ability of cells to proliferate and form colonies in vitro over 2 weeks. […] Next, we evaluated cell replication using the BrdU uptake assay in response to 30 μM drug treatment for 48 h (Figure 2C).

SK-N-BE(2)-C cells = assay: Colony formation assay, SK-N-BE(2)-C; conditions: increasing concentrations, 2 weeks
Procedure: as §1, §2

[1] = test system: neuroblastoma cells (Kelly and SK-N-BE(2)-C); assay: BrdU cell proliferation assay; conditions: 30 μM drug treatment for 48 h
Procedure: Cells were seeded in 96-well plates the day before and then treated with #5333 and #5338 for […]. Cell proliferation was measured using the BrdU ELISA kit (Roche, Millers Point, Australia), according to the manufacturer’s instructions. 10 μM BrdU was added to media and incubated at 37 °C in 5% CO2 for 2 h. Cells were fixed with supplied fixing solution for 30 min and then blocked with 10% FCS in PBS for 10 min. Peroxidase-conjugated anti-BrdU (1:100) was added and incubated for 90 min at room temperature. After washing with PBS for three times, peroxidase substrate was added to the cells. Changes in cell proliferation were calculated from the absorbance readings at 370 nm (495 nm reference wavelength) on the Benchmark Plus microplate reader (Bio-Rad).
as §2

neuroblastoma cells = assay: Annexin V/7-AAD flow cytometry apoptosis assay; conditions: 48 h treatment
Procedure: Neuroblastoma cell lines were seeded 24 h before treating with #5333 or #5338 for 48 h. The apoptotic and necrotic effects of the #5333 and #5338 treatment were determined by staining the cells with Annexin V PE/7-AAD using the Annexin V: PE Apoptosis Detection Kit (BD Biosciences, North Ryde, NSW, Australia), according to the manufacturer’s instruction. Stained cells were measured by flow cytometry using the BD LSRFortessa (BD Biosciences, NSW, Australia) and the data was analysed using the FlowJo software.
To determine if the drug effects led to apoptosis, we stained cells with annexin-V/7-AAD, a marker of early and late apoptotic events (Figure 2D). […] To confirm the apoptotic status of the cells, protein expression of key apoptotic markers PARP/Cleaved PARP, Caspase 3/Cleaved caspase 3, BCL2, and Bax was measured (Figure 2E).

| Compound | colony number and size, Kelly (Kelly cells) | colony number and size, SK-N-BE(2)-C (SK-N-BE(2)-C cells) | cell proliferation (BrdU uptake) [1] | apoptosis (annexin-V/7-AAD) (neuroblastoma cells) |
| --- | --- | --- | --- | --- |
| Cc1cccc(Oc2cc(N3CCC(C(=O)N[C@@H](C)CCc4ccccc4)CC3)ncn2)c1C [#5338] | decreased both the number and size of the colonies | decreased both the number and size of the colonies | significantly reduced | caused similar levels of apoptosis |
| Cc1cccc(Oc2cc(N3CCC(C(=O)NCc4cccc(Br)c4)CC3)ncn2)c1C [#5333] | decreased both the number and size of the colonies | decreased both the number and size of the colonies | significantly reduced | caused similar levels of apoptosis |
